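Exposure lasted 48 hours, with cells grown in 96-well plates and compounds tested at five concentrations. At the GI50, growth is halved.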 Calls of active or inactive are those of the source. No stated cut-off is given here; in the data, active = GI50 up to about 1.1 µM and inactive = higher.
Experiments:
Assay in all cases: growth of human tumour cells (NCI), 48 h
Malme-3M = test system: Malme-3M
NCI-H460 = test system: NCI-H460
SF-268 = test system: SF-268
KM12 = test system: KM12
SK-MEL-28 = test system: SK-MEL-28
SK-MEL-5 = test system: SK-MEL-5
HOP-62 = test system: HOP-62
786-0 = test system: 786-0
SNB-78 = test system: SNB-78
UO-31 = test system: UO-31
NCI-H226 = test system: NCI-H226
MOLT-4 = test system: MOLT-4
ACHN = test system: ACHN
A549 = test system: A549
A498 = test system: A498
SK-OV-3 = test system: SK-OV-3
RXF 393 = test system: RXF 393
DMS-114 = test system: DMS-114
COLO 205 = test system: COLO 205
HCT-15 = test system: HCT-15

Row | SMILES | GI50 (Malme-3M) | GI50 (NCI-H460) | GI50 (SF-268) | GI50 (KM12) | GI50 (SK-MEL-28) | GI50 (SK-MEL-5) | GI50 (HOP-62) | GI50 (786-0) | GI50 (SNB-78) | GI50 (UO-31) | GI50 (NCI-H226) | GI50 (MOLT-4) | GI50 (ACHN) | GI50 (A549) | GI50 (A498) | GI50 (SK-OV-3) | GI50 (RXF 393) | GI50 (DMS-114) | GI50 (COLO 205) | GI50 (HCT-15) [µM]
1 | O=c1[nH]c(=O)n(C2CC(O)C(CO)O2)cc1/C=C/Br (stereo unspecified) | > 100 µM (inactive) | > 100 µM (inactive) | > 100 µM (inactive) | > 100 µM (inactive) | > 100 µM (inactive) | > 100 µM (inactive) | > 100 µM (inactive) | > 100 µM (inactive) | > 100 µM (inactive) | > 100 µM (inactive) | > 100 µM (inactive) | > 100 µM (inactive) | > 100 µM (inactive) | > 100 µM (inactive) | > 100 µM (inactive) | > 100 µM (inactive) | > 100 µM (inactive) | > 100 µM (inactive) | – | –
2 | CNC(=O)OCc1nc(SSc2nc(COC(=O)NC)c(COC(=O)NC)n2C)n(C)c1COC(=O)NC | > 100 µM (inactive) | > 100 µM (inactive) | > 100 µM (inactive) | > 100 µM (inactive) | > 100 µM (inactive) | > 100 µM (inactive) | > 100 µM (inactive) | > 100 µM (inactive) | > 100 µM (inactive) | > 100 µM (inactive) | > 100 µM (inactive) | > 100 µM (inactive) | > 100 µM (inactive) | > 100 µM (inactive) | > 100 µM (inactive) | > 100 µM (inactive) | > 100 µM (inactive) | > 100 µM (inactive) | > 100 µM (inactive) | > 100
3 | O=C(c1c(O)cc(O)cc1O)C1Cc2ccccc21 (stereo unspecified) | > 100 µM (inactive) | 82.4 µM (inactive) | 53.1 µM (inactive) | > 100 µM (inactive) | – | > 100 µM (inactive) | 45.2 µM (inactive) | 31.8 µM (inactive) | 58.7 µM (inactive) | 58.3 µM (inactive) | > 100 µM (inactive) | > 100 µM (inactive) | > 100 µM (inactive) | 91.6 µM (inactive) | > 100 µM (inactive) | > 100 µM (inactive) | 76 µM (inactive) | > 100 µM (inactive) | > 100 µM (inactive) | > 100
4 | COc1nc(NC2OC(COC(C)=O)C(OC(C)=O)C(OC(C)=O)C2OC(C)=O)c(/N=C(\C)C(C)=O)c(=O)n1C (stereo unspecified) | > 100 µM (inactive) | > 100 µM (inactive) | – | > 100 µM (inactive) | – | > 100 µM (inactive) | > 100 µM (inactive) | > 100 µM (inactive) | > 100 µM (inactive) | > 100 µM (inactive) | > 100 µM (inactive) | > 100 µM (inactive) | > 100 µM (inactive) | > 100 µM (inactive) | > 100 µM (inactive) | > 100 µM (inactive) | > 100 µM (inactive) | > 100 µM (inactive) | > 100 µM (inactive) | > 100
5 | CC(=O)N1CCC2(c3ccccc3N(C(C)=O)C2c2ccc(O)cc2)C1C(=O)O (stereo unspecified) | > 100 µM (inactive) | – | > 100 µM (inactive) | > 100 µM (inactive) | > 100 µM (inactive) | > 100 µM (inactive) | > 100 µM (inactive) | > 100 µM (inactive) | > 100 µM (inactive) | > 100 µM (inactive) | > 100 µM (inactive) | > 100 µM (inactive) | > 100 µM (inactive) | > 100 µM (inactive) | > 100 µM (inactive) | > 100 µM (inactive) | > 100 µM (inactive) | > 100 µM (inactive) | > 100 µM (inactive) | –
6 | Fc1ccccc1C1SCc2nc3ccccc3n21 (stereo unspecified) | 55.3 µM (inactive) | 47.9 µM (inactive) | 69.8 µM (inactive) | 89.9 µM (inactive) | > 100 µM (inactive) | 18.8 µM (inactive) | – | > 100 µM (inactive) | > 100 µM (inactive) | 24.8 µM (inactive) | 76.7 µM (inactive) | 30.4 µM (inactive) | 38.1 µM (inactive) | 36.5 µM (inactive) | 9.62 µM (inactive) | 34.8 µM (inactive) | 92 µM (inactive) | 24.4 µM (inactive) | 77.3 µM (inactive) | –
7 | O=C1CCC2(c3ccc(Cl)cc3)Nc3ncccc3N12 (stereo unspecified) | > 100 µM (inactive) | > 100 µM (inactive) | > 100 µM (inactive) | > 100 µM (inactive) | > 100 µM (inactive) | > 100 µM (inactive) | > 100 µM (inactive) | > 100 µM (inactive) | 63 µM (inactive) | > 100 µM (inactive) | > 100 µM (inactive) | > 100 µM (inactive) | > 100 µM (inactive) | > 100 µM (inactive) | > 100 µM (inactive) | > 100 µM (inactive) | > 100 µM (inactive) | > 100 µM (inactive) | > 100 µM (inactive) | > 100
8 | C[N+]1(C)CCCC1C(=O)[O-] (stereo unspecified) | > 100 µM (inactive) | > 100 µM (inactive) | > 100 µM (inactive) | > 100 µM (inactive) | > 100 µM (inactive) | – | > 100 µM (inactive) | > 100 µM (inactive) | > 100 µM (inactive) | > 100 µM (inactive) | > 100 µM (inactive) | > 100 µM (inactive) | > 100 µM (inactive) | > 100 µM (inactive) | > 100 µM (inactive) | > 100 µM (inactive) | > 100 µM (inactive) | > 100 µM (inactive) | > 100 µM (inactive) | > 100
9 | C[N+](C)(C)CCC(=O)N1C/C(=C\c2ccccc2)C(=O)/C(=C/c2ccccc2)C1 | 15.4 µM (inactive) | 7.87 µM (inactive) | 5.14 µM (inactive) | 1.6 µM (inactive) | 8.05 µM (inactive) | 9.95 µM (inactive) | 18.1 µM (inactive) | 2.38 µM (inactive) | 6.65 µM (inactive) | 18.9 µM (inactive) | 10 µM (inactive) | 2.45 µM (inactive) | 6.3 µM (inactive) | 14.7 µM (inactive) | 20.7 µM (inactive) | 23.7 µM (inactive) | 11.8 µM (inactive) | 5.98 µM (inactive) | 3.47 µM (inactive) | 2.47
10 | CC(C)CN1CC(C)C(=O)NC1=O (stereo unspecified) | > 100 µM (inactive) | > 100 µM (inactive) | > 100 µM (inactive) | > 100 µM (inactive) | > 100 µM (inactive) | > 100 µM (inactive) | > 100 µM (inactive) | > 100 µM (inactive) | > 100 µM (inactive) | > 100 µM (inactive) | > 100 µM (inactive) | > 100 µM (inactive) | > 100 µM (inactive) | > 100 µM (inactive) | > 100 µM (inactive) | > 100 µM (inactive) | > 100 µM (inactive) | > 100 µM (inactive) | > 100 µM (inactive) | –
11 | O=c1cc2ccccc2nn1Cc1cccc(Cl)c1 | > 100 µM (inactive) | > 100 µM (inactive) | 90.2 µM (inactive) | > 100 µM (inactive) | 98.9 µM (inactive) | 37.8 µM (inactive) | > 100 µM (inactive) | > 100 µM (inactive) | > 100 µM (inactive) | 37.5 µM (inactive) | 57.1 µM (inactive) | – | > 100 µM (inactive) | 49.8 µM (inactive) | > 100 µM (inactive) | > 100 µM (inactive) | – | 66.4 µM (inactive) | > 100 µM (inactive) | 99.5
12 | CC1=CC=NN2C(=O)[C@H](C)C2C1 (stereo partly specified) | > 100 µM (inactive) | > 100 µM (inactive) | > 100 µM (inactive) | > 100 µM (inactive) | > 100 µM (inactive) | > 100 µM (inactive) | > 100 µM (inactive) | > 100 µM (inactive) | > 100 µM (inactive) | > 100 µM (inactive) | > 100 µM (inactive) | > 100 µM (inactive) | > 100 µM (inactive) | > 100 µM (inactive) | > 100 µM (inactive) | > 100 µM (inactive) | > 100 µM (inactive) | > 100 µM (inactive) | > 100 µM (inactive) | > 100
13 | N#COc1ccc(Oc2ccccc2)cc1 | > 100 µM (inactive) | 43.2 µM (inactive) | 75.2 µM (inactive) | > 100 µM (inactive) | > 100 µM (inactive) | 46.6 µM (inactive) | 55.7 µM (inactive) | 34.6 µM (inactive) | 36.8 µM (inactive) | 50.9 µM (inactive) | > 100 µM (inactive) | 42.9 µM (inactive) | 29.2 µM (inactive) | 73.3 µM (inactive) | > 100 µM (inactive) | > 100 µM (inactive) | > 100 µM (inactive) | 31.1 µM (inactive) | 64 µM (inactive) | 57.7
14 | CC(=O)OC1(C#N)CC2OC1C1C2N1C(=O)OC(C)(C)C (stereo unspecified) | > 100 µM (inactive) | > 100 µM (inactive) | > 100 µM (inactive) | – | > 100 µM (inactive) | > 100 µM (inactive) | > 100 µM (inactive) | > 100 µM (inactive) | > 100 µM (inactive) | > 100 µM (inactive) | > 100 µM (inactive) | > 100 µM (inactive) | > 100 µM (inactive) | > 100 µM (inactive) | > 100 µM (inactive) | > 100 µM (inactive) | > 100 µM (inactive) | > 100 µM (inactive) | > 100 µM (inactive) | > 100
15 | Oc1cccc(-c2cc(O)c3cc4c(cc3n2)OCO4)c1 | 0.352 µM (active) | 17.8 µM (inactive) | 1.71 µM (inactive) | 0.561 µM (active) | 2.81 µM (inactive) | 1.46 µM (inactive) | 1.6 µM (inactive) | 5.52 µM (inactive) | 1.03 µM (active) | 4.23 µM (inactive) | 2.9 µM (inactive) | 3.77 µM (inactive) | 5.85 µM (inactive) | 5.27 µM (inactive) | 41.8 µM (inactive) | 1.41 µM (inactive) | 1.67 µM (inactive) | 0.721 µM (active) | 2.68 µM (inactive) | 2.74
